# Measured values: patent EP4786487A1, “PEPTIDE” (Peptidream Inc, priority 2023, dated 2025)
# Starred links: 1 amine or outer side, 2 acyl side, 3 side chain; linkers in the order of their positions; H or OH if unused. Positions of bridges follow the written chain, without caps; N, C: chain ends. Non-standard residues stand in square brackets, D forms with d. Residues, ends and D or L forms follow the SMILES beside them. Phe(3-OCH2COOH) = N[C@@H](Cc1cccc(OCC(=O)O)c1)C(=O)O; Phe(4-COOH) = N[C@@H](Cc1ccc(C(=O)O)cc1)C(=O)O; Gly(N(CH2)3COOH) = O=C(O)CCCNCC(=O)O; X1 = CCCCCCC[C@H](N[*:1])C(=O)[*:2]; NMeF = CN[C@@H](Cc1ccccc1)C(=O)O; NMeA = CN[C@@H](C)C(=O)O
# Experiments:
# Format in all cases: cell-based
# Myostatin [1] = molecular target: T1, Myostatin (Homo sapiens, UniProt O14793); experiment: Reporter gene assay for myostatin signaling in HepG2 cell line, Evaluation Procedure (1), myostatin inhibition; settings: Method A: Myostatin 10 ng/mL; read-out: IC50 (Luciferase) Myostatin HepG2
# T1 construct: active myostatin (also called mature myostatin) is a homodimer consisting of two C-terminal growth factor domains; purchased R&D systems 788-G8/CF
# T1 sequence (O14793 267-375): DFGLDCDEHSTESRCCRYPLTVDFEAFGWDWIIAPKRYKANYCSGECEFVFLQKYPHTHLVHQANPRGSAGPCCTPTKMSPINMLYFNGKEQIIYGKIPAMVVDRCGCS
# Summary of the method: (§1)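 HepG2 cells transfected with pGL3(CAGA)12-luciferase reporter, serum-starved in 0.1% BSA medium, then stimulated with myostatin or GDF-11 plus 4-fold peptide dilutions (0.006–100 nmol/L for myostatin, 0.12–2000 nmol/L for GDF-11) for 20–24 h at 37 °C. Luminescence read with One-Glo; IC50 calculated.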
# Myostatin [2] = experiment: as above; settings: Method A; GDF-11 IC50 versus Myostatin IC50
# Summary of the method: as §1
# Myostatin [3] = molecular target: T1, Myostatin; experiment: Reporter gene assay for myostatin signaling in HEK-Blue TGF-β Cells, myostatin; settings: myostatin 3 ng/mL
# Procedure: (§2) In this Example, the in vitro activity of the peptide Myostatin_99_v145 (SEQ ID NO: 30) was evaluated using a reporter gene assay for myostatin signaling.
# (§3) HEK-Blue (trademark) TGF-β Cells (hkb-tgfbv2, InvivoGen) were cultured in DMEM High glucose GlutaMAX (10569010, Thermo) containing 10% FBS (Heat-inactivated FBS QUALIFIED, 10270-106, Gibco), […] Normocin (ant-nr-05, InvivoGen), […] Zeocin (ant-zn-05, InvivoGen), and 50 µg/mL Gentamicin (11980-14, Nacalai Tesque). The cultured HEK-Blue (trademark) TGF-β Cells were suspended in an assay medium containing DMEM High glucose GlutaMAX, 50 µg/mL Gentamicin, and 1% bovine serum albumin (A7030, Sigma). The cells were seeded at 4 × 10^4 cells/well onto a 96-well plate (356461, Corning), namely BioCoat poly-D-lysine multi-well plate, and allowed to stand for 30 min.
# (§4) A 4-fold dilution series of the peptide, namely Myostatin_99_v145 (SEQ ID NO: 30), synthesized according to Example 1, the final concentration of which was from 0.006 nmol/L up to a maximum concentration of 0.1 µmol/L for the myostatin inhibitory activity test, was added to a 96-well U-bottom Non-Binding MicroPlate (650901, Greiner). For the GDF-11 or activin A inhibitory activity test, a 4-fold dilution series, the final concentration of which was from 0.12 nmol/L to a maximum concentration of 2 µmol/L, was added to a 96-well U-bottom Non-Binding MicroPlate (650901, Greiner).
# (§5) Subsequently, myostatin (788-G8/CF, R&D systems), GDF-11 (1958-GD-G8/CF, R&D systems), or activin A (338-AC-010/CF, R&D systems) was each added at a final concentration of 3 ng/mL. The plate was sealed with Parafilm, and incubated in a CO2 incubator (37°C, 5% CO2) for 30 min. The samples were added at 50 µL/well to a plate containing HEK-Blue (trademark) TGF-β Cells, and incubated in a CO2 incubator (37°C, 5% CO2) for 24 hours.
# (§6) To each well of a UV-Star µClear 96-well (655801, Greiner), 180 µL of Detection buffer (prepared by diluting, with 17.64 mL of distilled water, 180 µL of QUANTI-Blue buffer and 180 µL of QUANTI-Blue solution) was dispensed. Here, 20 µL of the supernatant of the culture medium was transferred to the above Detection buffer and stirred with a shaker for 1 min. The plate was covered and incubated in a CO2 incubator for 3 to 5 hours, and absorbance was measured (Envision 2104, PerkinElmer, 620 nm/bp 40 nm). Based on the absorbance, IC50 values of the peptide were calculated using software (Prism 9, GraphPad).
# Myostatin [4] = experiment: as above
# Procedure: as §2, §3, §4, §5, §6
# GDF-11 = molecular target: T2, GDF-11 (Homo sapiens, UniProt O95390); experiment: Reporter gene assay for myostatin signaling in HEK-Blue TGF-β Cells, GDF-11; settings: GDF-11 3 ng/mL
# T2 construct: purchased R&D systems 1958-GD-G8/CF
# T2 sequence (O95390 299-407): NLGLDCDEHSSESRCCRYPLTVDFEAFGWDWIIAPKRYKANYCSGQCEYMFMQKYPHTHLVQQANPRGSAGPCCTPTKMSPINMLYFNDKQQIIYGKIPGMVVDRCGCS
# Procedure: as §2
# as §3, with “min. […]” for “min.”
# as §6, with “Here, 20 µL of the supernatant of the culture medium was transferred to the above Detection buffer and stirred with a shaker for 1 min.” left out
smiles,measurement,setting,value
CCCCCCC[C@@H]1NC(=O)[C@H](Cc2ccccc2)N(C)C(=O)[C@H](CCCNC(=N)N)NC(=O)[C@H](Cc2ccc(C(=O)O)cc2)NC(=O)[C@H](Cc2cccc(OCC(=O)O)c2)NC(=O)[C@H](C)N(C)C(=O)[C@H]([C@@H](C)CC)NC(=O)[C@H](Cc2ccccc2)N(C)C(=O)[C@H](Cc2ccc(O)cc2)NC(=O)[C@H](Cc2c[nH]c3ccccc23)NC(=O)[C@H](C)NC(=O)CN(CCCC(=O)O)C(=O)CSC[C@H](C(=O)O)NC(=O)[C@H](Cc2ccccc2)N(C)C(=O)[C@H](C)N(C)C1=O [Myostatin_99_v145] ({CH2CO}-[Gly(N(CH2)3COOH)]AWY[NMeF]I[NMeA][Phe(3-OCH2COOH)][Phe(4-COOH)]R[NMeF][X1][NMeA][NMeF][dC]-OH; thioether N-15),IC50,Myostatin [1],1.6 nM
same,Selectivity,Myostatin [2],259
same,IC50,Myostatin [3]; read-out: IC50 (nmol/L) Myostatin,0.23 nmol/L
same,IC90,Myostatin [3]; read-out: IC90 (nmol/L) Myostatin,0.64 nmol/L
same,Selectivity (GDF11/myostatin),Myostatin [4]; from IC50,270
same,Selectivity (GDF11/myostatin),Myostatin [4]; from IC90,"1,088"
same,IC50,GDF-11; read-out: IC50 (nmol/L) GDF11,61.2 nmol/L
same,IC90,GDF-11; read-out: IC90 (nmol/L) GDF11,702 nmol/L
